Results on 27 compounds are retold here after patent US20220081433A1, “CYCLIC SULFAMIDE COMPOUNDS FOR TREATMENT OF HBV” (Assembly Biosciences, Inc., priority 2018, published 2022).

Molecules are shown by their SMILES. Bounds are passed on as bounds.

This test relates to HBV. Kind of test: Activity of test compounds on viral production from HepAD38 cells (viral load by qPCR of HBV core sequence). Type of test: cell-based. The note with it: Hepatitis B virus, 120 h, 5 days, supernatant HBV DNA by qPCR vs DMSO control, read-out: viral load lowering EC50 (Activity). As to the method:
Assay Measuring Activity of Test Compounds on Viral Production from HepAD38 Cells
HepAD38 cells grown in a T-150 flask (Corning, cat#: 430825) with Growth Medium (DMEM/F12 (1:1) (Hyclone, cat#: SH30023.02), 1× Pen/Strep (Invitrogen, cat#: 15140-122), 10% FBS (Tissue Culture Biologics, cat#: 101), 250 μg/mL G418 (Alfa Aesar, cat#: J62671), 1 μg/mL Tetracycline (Teknova, cat#: T3320)) were detached with 0.25% trypsin-EDTA (Invitrogen, cat#: 25200-056). Tetracycline-free treatment medium (15 mL DMEM/F12 (1:1) 1×Pen/step, with 2% FBS, Tet-system approved (Clontech, cat#: 631106) were then added to mix, transferred into a 50 ml conical tube (Falcon, cat#: 21008-918) and spun at 1300 rpm for 5 min. Pelleted cells were then re-suspended/washed with 50 mL of 1×DPBS (Invitrogen, cat#: 14190-136) 2 times and 50 mL treatment medium twice. HepAD38 cells were then re-suspended with 10 mL of treatment medium, syringed and counted. Wells of 96-well clear bottom TC plate (Corning, cat#: 3904) were seeded at 50,000 cells/well in 180 μL of treatment medium, and 20 μL of either 10% DMSO (Sigma, cat#: D4540) as controls or a 10× solution of test compounds in 10% DMSO in treatment media was added for a final compound concentration starting at 10 μM, and plates were incubated in 5% CO2 incubator at 37° C. for 5 days.
Subsequently viral load production was assayed by quantitative PCR (qPCR) of the HBV core sequence. PCR reaction mixture containing forward primers HBV-f 5′-CTGTGCCTTGGGTGGCTTT-3′ (IDT DNA), Reverse primers HBV-r 5′-[…]-3′ (IDT DNA), Fluorescent TaqMan™ Probes HBV-probe 5′-FAM/AGCTCCAAA/ZEN/[…]/3IABkFQ-3′ (IDT DNA), 10 μL/well of PerfeCTa® qPCR ToughMix® (Quanta Biosciences, Cat#: 95114-05K), and 6 μL/well of DEPC water (Alfa Aesar, cat#: J62087) was prepared. Four μL of supernatant was added to 16 μL of the reaction mixture in a qPCR plate (Applied Biosytems, Cat#: 4309849), sealed with a film (Applied Biosystems, Cat#: 4311971), centrifuged for a few seconds, and subsequently run on an Applied Biosystems VIIA7. The PCR mixture was incubated at 45° C. for 5 min, then 95° C. for 10 min, followed by 40 cycles of 10 seconds at 95° C. and 20 seconds at 60° C. Viral load was quantified against known HBV DNA standards by using ViiA™ 7 Software. Viral load in the supernatant from wells with treated cells were compared against viral load in supernatant from DMSO control wells (≥ 3 per plate). Cell viability assay was performed with CellTiter-Glo Luminescent Cell Viability Assay (Promega, cat#: G7573) with modification. Mixed appropriate amount of CellTiter-Glo (CTG) 1×DPBS in a 1:1 ratio, added 100 uL of the mixture to each well followed completely removal of all supernatant in each well without touching cell surface. Incubated the plate at room temperature for 10 min on an orbital shaker, and then read the plate with a plate reader (TECAN M1000 or Envision). EC50 or CC50 values were calculated through curve-fitting of the four-parameter nonlinear-logistic-regression model (GraphPad Prism or Dotmatics). CC50 values were all >10 μM.
A general note: Real-time PCR tracks product formation cycle by cycle.
As usually defined, the EC50 is the concentration needed to bring the measured effect to its halfway point. Regarding `CN1C(C(=O)Nc2ccc(F)c(Cl)c2)CC(c2cccc(-c3cccc(C(=O)O)c3)c2)NS1(=O)=O` (stereo not drawn) [Example 19, 3′-(5-((3-Chloro-4-fluorophenyl)carbamoyl)-6-methyl-1,1-dioxido-1,2,6-thiadiazinan-3-yl)-[1,1′-biphenyl]-3-carboxylic acid], the EC50 lay in the range of 1000 to 5000 nM.

For `CN1C(C(=O)Nc2ccc(F)c(Cl)c2)CC(c2cccc(-c3ccc(F)cc3Cl)c2)NS1(=O)=O` (stereo not drawn) [Example 5, 5-(2′-Chloro-4′-fluoro-[1,1′-biphenyl]-3-yl)-N-(3-Chloro-4-fluorophenyl)-2-methyl-1,2,6-thiadiazinane-3-carboxamide 1,1-dioxide], the EC50 is below 1000 nM.

Take `Cc1ccc(-c2cccc(C3CC(C(=O)Nc4ccc(F)c(Cl)c4)N(C)S(=O)(=O)N3)c2)c(Cl)c1` (stereo not drawn) [Example 6, 5-(2′-Chloro-4′-methyl-[1,1′-biphenyl]-3-yl)-N-(3-Chloro-4-fluorophenyl)-2-methyl-1,2,6-thiadiazinane-3-carboxamide 1,1-dioxide]: the EC50 is below 1000 nM.

For `CN1[C@@H](C(=O)Nc2ccc(F)c(Cl)c2)C[C@@H](c2cccc(-c3ccccc3)c2)NS1(=O)=O` (single isomer, unassigned) [2-Isomer II], the EC50 was 5000 to 10000 nM.

As to `CN1[C@H](C(=O)Nc2ccc(F)c(Cl)c2)C[C@H](c2cccc(-c3ccc(Cl)c(Cl)c3)c2)NS1(=O)=O` (single isomer, unassigned) [9-Isomer I], the EC50 was below 1000 nM.

Take `CN1[C@@H](C(=O)Nc2ccc(F)c(Cl)c2)C[C@@H](c2cccc(-c3ccc(Cl)c(Cl)c3)c2)NS1(=O)=O` (single isomer, unassigned) [9-Isomer II]: the EC50 is 5000 to 10000 nM.

Consider `CN1[C@H](C(=O)Nc2ccc(F)c(Cl)c2)C[C@H](c2cccc(-c3ccccc3)c2)NS1(=O)=O` (single isomer, unassigned) [2-Isomer I], for which the EC50 is below 1000 nM.

Take `CN1C(C(=O)Nc2ccc(F)c(Cl)c2)CC(c2cccc(C3=CCOCC3)c2)NS1(=O)=O` (stereo not drawn) [Example 11, N-(3-Chloro-4-fluorophenyl)-5-(3-(3,6-dihydro-2H-pyran-4-yl)phenyl)-2-methyl-1,2,6-thiadiazinane-3-carboxamide 1,1-dioxide]: the EC50 was below 1000 nM.

Consider `CN1C(C(=O)Nc2ccc(F)c(Cl)c2)CC(c2cccc(-c3ccc(C#N)cc3)c2)NS1(=O)=O` (stereo not drawn) [Example 4, N-(3-Chloro-4-fluorophenyl)-5-(4′-cyano-[1,1′-biphenyl]-3-yl)-2-methyl-1,2,6-thiadiazinane-3-carboxamide 1,1-dioxide], for which the EC50 is below 1000 nM.

In the case of `CN1C(C(=O)Nc2ccc(F)c(Cl)c2)CC(c2cccc(N3CCCCC3)c2)NS1(=O)=O` (stereo not drawn) [Example 23, N-(3-Chloro-4-fluorophenyl)-2-methyl-5-(3-(piperidin-1-yl)phenyl)-1,2,6-thiadiazinane-3-carboxamide 1,1-dioxide], the EC50 is below 1000 nM.

Consider `CN1[C@H](C(=O)Nc2ccc(F)c(Cl)c2)C[C@H](c2cccc(-c3cccc(C(F)(F)F)c3)c2)NS1(=O)=O` (single isomer, unassigned) [8-Isomer I], for which the EC50 is below 1000 nM.

Regarding `CN1C(C(=O)Nc2ccc(F)c(Cl)c2)CC(c2ccc(-c3cn(C)cn3)o2)NS1(=O)=O` (stereo not drawn) [Example 36, N-(3-Chloro-4-fluorophenyl)-2-methyl-5-(5-(1-methyl-1H-imidazol-4-yl)furan-2-yl)-1,2,6-thiadiazinane-3-carboxamide 1,1-dioxide], the EC50 was below 1000 nM.

In the case of `Cc1nnc(C2CC(C(=O)Nc3ccc(F)c(Cl)c3)N(C)S(=O)(=O)N2)n1C` (stereo not drawn) [Example 32, N-(3-Chloro-4-fluorophenyl)-5-(4,5-dimethyl-4H-1,2,4-triazol-3-yl)-2-methyl-1,2,6-thiadiazinane-3-carboxamide 1,1-dioxide], the EC50 was in the range of 5000 to 10000 nM.

With `CN1C(C(=O)Nc2ccc(F)c(Cl)c2)CC(c2ncc(-c3ccccc3)n2C)NS1(=O)=O` (stereo not drawn) [Example 34, N-(3-Chloro-4-fluorophenyl)-2-methyl-5-(1-methyl-5-phenyl-1H-imidazol-2-yl)-1,2,6-thiadiazinane-3-carboxamide 1,1-dioxide], the EC50 fell in the range of 5000 to 10000 nM.

With `CN1[C@H](C(=O)Nc2ccc(F)c(Cl)c2)C[C@H](c2cccc(-c3cccc(C(=O)O)c3)c2)NS1(=O)=O` (single isomer, unassigned) [19-Isomer I], the EC50 was below 1000 nM.

On to `CN1[C@@H](C(=O)Nc2ccc(F)c(Cl)c2)C[C@@H](c2cccc(-n3ccnc3)c2)NS1(=O)=O` (single isomer, unassigned) [27-Isomer II], for which the EC50 fell in the range of 5000 to 10000 nM.

Regarding `COC(=O)c1cccc(-c2cccc(C3CC(C(=O)Nc4ccc(F)c(Cl)c4)N(C)S(=O)(=O)N3)c2)c1` (stereo not drawn) [Example 12, Methyl 3′-(5-((3-Chloro-4-fluorophenyl)carbamoyl)-6-methyl-1,1-dioxido-1,2,6-thiadiazinan-3-yl)-[1,1′-biphenyl]-3-carboxylate], the EC50 was below 1000 nM.

On to `CN1[C@@H](C(=O)Nc2ccc(F)c(Cl)c2)C[C@@H](c2cccc(-c3cccc(C(F)(F)F)c3)c2)NS1(=O)=O` (single isomer, unassigned) [8-Isomer II], for which the EC50 lay in the range of 5000 to 10000 nM.

Regarding `CN1C(C(=O)Nc2ccc(F)c(Cl)c2)CC(c2nnc(Cc3ccccc3)n2C)NS1(=O)=O` (stereo not drawn) [Example 33, 5-(5-Benzyl-4-methyl-4H-1,2,4-triazol-3-yl)-N-(3-chloro-4-fluorophenyl)-2-methyl-1,2,6-thiadiazinane-3-carboxamide 1,1-dioxide], the EC50 was 5000 to 10000 nM.

Consider `CN1C(C(=O)Nc2ccc(F)c(Cl)c2)CC(c2cccc(-c3cncn3C)c2)NS1(=O)=O` (stereo not drawn) [Example 20, N-(3-Chloro-4-fluorophenyl)-2-methyl-5-(3-(1-methyl-1H-imidazol-5-yl)phenyl)-1,2,6-thiadiazinane-3-carboxamide 1,1-dioxide], for which the EC50 was below 1000 nM.

On to `COc1ccc(-c2cccc(C3CC(C(=O)Nc4ccc(F)c(Cl)c4)N(C)S(=O)(=O)N3)c2)cc1C(F)(F)F` (stereo not drawn) [Example 14, N-(3-Chloro-4-fluorophenyl)-5-(4′-methoxy-3′-(trifluoromethyl)-[1,1′-biphenyl]-3-yl)-2-methyl-1,2,6-thiadiazinane-3-carboxamide 1,1-dioxide], for which the EC50 was 1000 to 5000 nM.

Regarding `Cc1ccc(-c2cccc([C@@H]3C[C@H](C(=O)Nc4ccc(F)c(Cl)c4)N(C)S(=O)(=O)N3)c2)c(Cl)c1` (single isomer, unassigned) [6-Isomer II], the 50% effective concentration (EC50) was 1000 to 5000 nM.

In the case of `COC(=O)Cc1ccc(-c2cccc(C3CC(C(=O)Nc4ccc(F)c(Cl)c4)N(C)S(=O)(=O)N3)c2)cc1` (stereo not drawn) [Example 15, Methyl 2-(3′-(5-((3-chloro-4-fluorophenyl)carbamoyl)-6-methyl-1,1-dioxido-1,2,6-thiadiazinan-3-yl)-[1,1′-biphenyl]-4-yl)acetate], the EC50 is below 1000 nM.

For `CN1CCN(c2cccc([C@@H]3C[C@H](C(=O)Nc4ccc(F)c(Cl)c4)N(C)S(=O)(=O)N3)c2)CC1` (single isomer, unassigned) [25-Isomer II], the EC50 is 1000 to 5000 nM.

Regarding `CN1C(C(=O)Nc2ccc(F)c(Cl)c2)CC(c2cccc(-c3cccc(C(F)(F)F)c3)c2)NS1(=O)=O` (stereo not drawn) [Example 8, N-(3-Chloro-4-fluorophenyl)-2-methyl-5-(3′-(trifluoromethyl)-[1,1′-biphenyl]-3-yl)-1,2,6-thiadiazinane-3-carboxamide 1,1-dioxide], the EC50 was below 1000 nM.

With `CN1[C@@H](C(=O)Nc2ccc(F)c(Cl)c2)C[C@@H](c2cccc(-c3ccc(F)cc3Cl)c2)NS1(=O)=O` (single isomer, unassigned) [5-Isomer II], the EC50 was in the range of 1000 to 5000 nM.

With `CN1[C@H](C(=O)Nc2ccc(F)c(Cl)c2)C[C@H](c2cccc(-c3ccc(C#N)cc3)c2)NS1(=O)=O` (single isomer, unassigned) [4-Isomer I], the EC50 is below 1000 nM.
